Assay results taken from the METLIN SMRT retention time set (Domingo-Almenara et al. 2019).

Assay: gradient 5% acetonitrile 3 min, to 50% in 2 min, to 85% in 15 min, held 3 min, 100 µL/min
Conditions: column: Zorbax Extend-C18 2.1 x 50 mm; eluents: water / acetonitrile, 0.1% formic acid
Summary of the method: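 A Zorbax Extend-C18 column (2.1 × 50 mm, 1.8 μm) run at 100 μL/min with water and acetonitrile, both containing 0.1% formic acid, separated mixtures of ~100 pure standards. The HPLC was coupled to a quadrupole time-of-flight mass spectrometer operated in positive and negative ionization mode, with dead and dwell volumes of 40 μL and 900 μL. Each retention time was taken from a computationally picked adduct peak that was then manually inspected.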

Row | RP-LC retention time [s] | Compound
1 | 1100 | O=C(NC1CCCCCCC1)C1CCN(S(=O)(=O)c2cc(-c3noc(C4CC4)n3)cs2)CC1
2 | 756 | CCN1CCCn2cc(S(=O)(=O)Nc3cc(C)ccc3C)cc2C1=O
3 | 645 | CCOC(=O)c1c(C)c(CCC(=O)NCCN2CCCCCC2)n(C)c1C
4 | 636 | CCCc1cc(N2CCN(C(=O)c3cccn3C)CC2)nc2nnc(CC)n12
5 | 667 | O=C(NC1CCN(c2cc(-c3cccs3)[nH]n2)C1)c1ccccn1 (stereo not given)
6 | 710 | COc1ccc(OCc2noc(CNS(=O)(=O)c3ccc(NC(C)=O)cc3)n2)cc1
7 | 866 | CCc1ccc(S(=O)(=O)N2C[C@@H](F)C[C@H]2C(=O)N2CCCCC2)cc1
8 | 750 | O=C(NC1CC1)[C@@H]1C[C@H](Oc2ccccc2)CN1C(=O)C1CCCC1
9 | 1030 | CN(C)c1cccc(-c2nc(C3CC(=O)N(c4ccccc4)C3)no2)c1 (stereo not given)
10 | 801 | Cc1ccc(Cl)cc1NC(=O)N1CCC(CC(=O)N2CCCCC2)CC1
11 | 611 | O=C(Nc1ccc(C(=O)N2CCN(c3ccccn3)CC2)cc1)C1=CSCCO1
12 | 796 | O=C(Cn1nc2c3cc(-c4ccccc4)nn3ccn2c1=O)NC1CCCC1
13 | 662 | COc1ccc(OC)c(-c2cc(C(=O)NCc3nc(C)no3)[nH]n2)c1
14 | 490 | CNc1nccc(N2CCC(CC(=O)NCCCN3CCCC3=O)CC2)n1
15 | 664 | COC(=O)CCc1sc(Nc2c(C)n[nH]c2C)nc1-c1ccc(OC)cc1
16 | 850 | Cn1nnc2c(N3CCN(C(=O)C(C)(C)Oc4ccc(Cl)cc4)CC3)ncnc21
17 | 789 | CCOC(=O)c1nc(N(C)C2CCCCC2)c2ccccc2n1
18 | 853 | CNC(=O)c1cc2cccc3c2n1CC(C)S3 (stereo not given)
19 | 971 | CN(C(=O)c1cn(-c2ccc(-c3nc(C4CC4)no3)cn2)cn1)C1CCCCC1
20 | 732 | COC(=O)c1ncn2c1C(=O)N(c1ccc(F)cc1)C(C)(C(=O)NCc1ccc(C)cc1)C2 (stereo not given)
21 | 829 | O=C(Nc1cccc([N+](=O)[O-])c1)N1CCN(c2ccccc2)CC1
22 | 591 | CCOC(=O)N1CCN(CC(O)COc2c(F)cc(Br)cc2F)CC1 (stereo not given)
23 | 871 | COc1cc(OC)cc(-c2nc(Cn3cnc4ccccc4c3=O)no2)c1
24 | 915 | Cc1ccc(NC(=O)NC2CCN(c3ccccc3)C2=O)cc1Cl (stereo not given)
25 | 548 | CN(C)CCNC(=O)c1csc(-c2ccc(N3CCCC3)nc2)n1

Row | RP-LC retention time [s] | Compound
26 | 870 | Cc1cc2c(c(=O)n(-c3ccccc3)c(=O)n2CC(=O)Nc2cccc(Cl)c2)n1C
27 | 646 | CC(NC(=O)Cn1cnc2cc3c(cc21)OCCO3)c1ccc2c(c1)OCCCO2 (stereo not given)
28 | 589 | Cc1cccc(NC(=O)C2CCCN(S(=O)(=O)c3c[nH]c(C(=O)N4CCCC4)c3)C2)c1 (stereo not given)
29 | 606 | CN(C)CCNC(=O)CN1C(=O)CN(C(=O)NCc2ccccc2)c2ccccc21
30 | 1070 | CCc1ccc(OCC(=O)Nc2nnc(SCc3nnc(-c4ccccc4C)o3)s2)cc1
31 | 1300 | CCOc1nc2ccccc2nc1N1CCCC(C(=O)Nc2ccc(Cl)cc2)C1 (stereo not given)
32 | 596 | OCCNCc1ccc(-c2ccccc2F)o1
33 | 691 | O=C(Nc1ccc2c(c1)OCCO2)C1CCN(S(=O)(=O)c2ccc3[nH]c(=O)ccc3c2)CC1
34 | 655 | Cc1nn2c(CNC(=O)c3cccnc3)c(-c3ccccc3)nc2s1
35 | 612 | CCCCC(=O)Nc1ccc(-c2cn3ccc(C)nc3n2)cc1
36 | 842 | CCOC(=O)N1CCC(NC(=O)C(=O)NCCC2=CCCCC2)CC1
37 | 851 | CCS(=O)(=O)c1nc2ccc(NS(=O)(=O)c3cccc(F)c3)cc2s1
38 | 589 | Cn1c(N2CCCC(C(=O)NCC3CCN(CCc4cccs4)CC3)C2)cc(=O)n(C)c1=O (stereo not given)
39 | 791 | CCNC(=O)c1cc2cc(C)ccc2[nH]1
40 | 971 | Cc1[nH]c(C(=O)Nc2cccc(Br)c2)c(C)c1S(=O)(=O)N1CCCC1
41 | 855 | COc1ccc(Cc2nc3nccc(-c4ccco4)n3n2)cc1
42 | 808 | Cc1nn(C)cc1CN(C)C(=O)c1cc2c(=O)n(CC(C)C)c3ccccc3n2n1
43 | 818 | Cc1ccc(C)c(C(=O)CC2(O)C(=O)N(C)c3ccccc32)c1 (stereo not given)
44 | 664 | Cn1cc(-c2ccncc2)cc1C(=O)NCc1ccc(F)c(Cl)c1
45 | 1090 | CN(C)S(=O)(=O)c1ccc(C(=O)OCc2cc(-c3ccc(Cl)cc3)on2)cc1
46 | 799 | CCc1nn2c(S(=O)(=O)NC3CCCC3)c(C)nc2s1
47 | 1210 | Clc1ccc(OCc2nnc3sc(-c4ccc5ccccc5n4)nn23)cc1
48 | 1180 | O=C(Nc1ccc(Cl)cn1)C(=O)c1cccn1Cc1ccccc1
49 | 534 | O=C(NCc1cccnc1)c1cc(N2CCCC2)n2nccc2n1

The remaining lines, values behind:

Row | Compound | RP-LC retention time [s]
50 | Cc1cc(C(N)=O)c2cc(F)ccc2n1 | 544
51 | O=[N+]([O-])c1c(-c2nc3ccc(Cl)cn3c2Nc2ccc(Cl)cc2)ccc2c1OCO2 | 1000
52 | O=C(NCc1ccc(F)cc1)Nc1nnc(-c2ccco2)o1 | 706
53 | NC(=O)CNC(=O)c1cc2c(s1)N(CC1CC1)CCCC2 | 692
54 | CCc1c(C(=O)O)nnn1-c1ccc2c(c1)CCC2 | 796
55 | Cc1ccc(NS(=O)(=O)c2cc(-c3[nH]ncc3C(=O)N3CCCC3)oc2C)c(Cl)c1 | 741
56 | Cc1ccc(Cl)cc1N1CCN(C(=O)c2[nH]c(C)c(S(=O)(=O)N3CCCC3)c2C)CC1 | 1060
57 | COCCN1C(=O)c2ccccc2C(C(=O)N2CCN(Cc3ccccc3)CC2)C1c1cccs1 (stereo not given) | 661
58 | Cn1c(=O)c(=O)n(C)c2cc(N3CCCCC3)c(NC(=O)C3CCCCC3)cc21 | 940
59 | CCCN(CCC#N)C(=O)CN1CC2=C(C1=O)C(c1ccccc1Cl)NC(=O)N2C (stereo not given) | 634
60 | O=S(=O)(c1ccccc1F)N1CC(c2nc(Cc3ccccc3)no2)C1 | 976
61 | O=S(=O)(/C=C/c1ccccc1)NCC1CCN(Cc2ccsc2)CC1 | 586
62 | CCOC(=O)c1c(S(=O)(=O)N2CCC(C(=O)Nc3nc(C)cs3)CC2)c(C)n(C)c1C | 780
63 | CC(C)CC(=O)N(C)CCc1noc(-c2ccc(C(=O)N3CCOCC3)cc2)n1 | 695
64 | COc1cccc(-c2nc(-c3ccc(NS(=O)(=O)c4cccs4)cc3)no2)c1OC | 1040
65 | CC(C)Cn1c(=O)c2ccccc2n(Cc2nc(-c3ccccc3Cl)no2)c1=O | 1170
66 | CCN(CC)S(=O)(=O)c1cc(-c2nnc(-c3ccc(Br)cc3)o2)ccc1C | 1230
67 | CCc1nc(-n2cccc2)sc1C(=O)Nc1ccc(C)cc1 | 949
68 | CC(=O)Nc1cc([N+](=O)[O-])c(N(C)S(=O)(=O)c2ccccc2)c2ccccc12 | 781
69 | C=CCn1c(C)c(CC(=O)NCCOC)c(=O)n2nc(-c3ccccc3)nc12 | 673
70 | CC(C)(C)c1cc(N)n(C2CCS(=O)(=O)C2)n1 (stereo not given) | 623

Row | Compound | RP-LC retention time [s]
71 | Cc1csc(-n2nc(C)c(CC(=O)Nc3ccccc3Cl)c2C)n1 | 1010
72 | Cc1ccn2cc(-c3ccc(NS(=O)(=O)c4cc(Cl)ccc4Cl)cc3)nc2n1 | 691
73 | c1csc(-c2nc(-c3ccc4c(c3)ncn4CCN3CCCC3)no2)c1 | 614
74 | Cc1nc(-c2csc(S(=O)(=O)N3CCCC(C(=O)Nc4cccc5c4CCCC5)C3)c2)no1 (stereo not given) | 1110
75 | COCc1cc(=O)n(CC(=O)N2CCN(c3ccc(F)cc3)CC2)c(N2CCOCC2)n1 | 819
76 | CCCn1cc(C(=O)NCc2ccccn2)c2cccnc21 | 595
77 | O=C(COc1cccc(Cl)c1)N1CCCN(C2CCN(CC3CC3)C2=O)CC1 (stereo not given) | 574
78 | Cn1ncc2c(N3CCSCC3)nc(C(=O)N3CCOCC3)nc21 | 635
79 | CC1Oc2ccc(-c3csc(NC(=O)C(C)(C)C)n3)cc2N(C)C1=O (stereo not given) | 963
80 | Cc1[nH]c(C(=O)N2CCCC(C(=O)NCCCN3CCOCC3)C2)c(C)c1C (stereo not given) | 597
81 | COc1ccc2c(c1)C1(CCN(S(=O)(=O)c3cc(F)ccc3C)C1)C(=O)N2 (stereo not given) | 857
82 | COC(=O)c1c(NCc2ccc(C)o2)c2cccc(Cl)c2[nH]c1=O | 766
83 | O=c1[nH]c2ccc(S(=O)(=O)N3CCN(c4nc5ccccc5[nH]4)CC3)cc2o1 | 522
84 | CC(=O)Nc1ccc(-c2nc3ccc(C)cc3s2)cc1 | 851
85 | CC(=O)Nc1ccc(NC(=O)c2nc3ccccn3c2-c2ccc(Cl)cc2)cc1 | 855
86 | CC1CCCN(CCCNC(=O)C2CCCN(c3ncnc4c3nc3n4CCCCC3)C2)C1 (stereo not given) | 585
87 | Cc1cccc(CN2CCCn3nc(C(=O)NCCc4cnc[nH]4)cc3C2=O)c1 | 610
88 | CCCN1C(=O)c2cc(S(=O)(=O)Nc3ccc(OC)cc3)ccc2Oc2cccnc21 | 1030
89 | CCN1CCN(c2cc(C(=O)O)c3cc(NS(=O)(=O)c4cccc(F)c4)ccc3n2)CC1 | 600
90 | CCCN(CCC)C1CCc2cc(O)c(O)cc2C1 (stereo not given) | 641
